# Measured values reported in patent EP2776398B1, “SUBSTITUTED PYRAZOLYL-BASED UREA DERIVATIVES AS VANILLOID RECEPTOR LIGANDS” (Medifron DBT Inc., priority 2011, dated 2013).
# Target: T1, vanilloid receptor 1 (VR1/TRPV1 receptor) (Homo sapiens, UniProt Q8NER1)
# T1 construct: expressed in transfected cells; host or cells: CHO K1 cells (ECACC), stably transfected
# Experiment: Functional testing on vanilloid receptor 1: FLIPR Ca2+ influx assay against capsaicin (Cap) in transfected CHO K1 cells (pharmacological method II); as to Ki: 100 nM capsaicin
# Format: cell-based
# Set-up: key to (f) Ki (human being) [nM] Cap: agonist classification: AG = agonist
# Conditions: @ 1µM; human VR1 in CHO K1 cells; capsaicin; relative to maximum inhibition with 10 µM capsazepine; read-out: inhibition (as a percentage), printed in column (f) Ki (human being) [nM] Cap
# Excerpt: […]
# T1 sequence (Q8NER1 whole entry): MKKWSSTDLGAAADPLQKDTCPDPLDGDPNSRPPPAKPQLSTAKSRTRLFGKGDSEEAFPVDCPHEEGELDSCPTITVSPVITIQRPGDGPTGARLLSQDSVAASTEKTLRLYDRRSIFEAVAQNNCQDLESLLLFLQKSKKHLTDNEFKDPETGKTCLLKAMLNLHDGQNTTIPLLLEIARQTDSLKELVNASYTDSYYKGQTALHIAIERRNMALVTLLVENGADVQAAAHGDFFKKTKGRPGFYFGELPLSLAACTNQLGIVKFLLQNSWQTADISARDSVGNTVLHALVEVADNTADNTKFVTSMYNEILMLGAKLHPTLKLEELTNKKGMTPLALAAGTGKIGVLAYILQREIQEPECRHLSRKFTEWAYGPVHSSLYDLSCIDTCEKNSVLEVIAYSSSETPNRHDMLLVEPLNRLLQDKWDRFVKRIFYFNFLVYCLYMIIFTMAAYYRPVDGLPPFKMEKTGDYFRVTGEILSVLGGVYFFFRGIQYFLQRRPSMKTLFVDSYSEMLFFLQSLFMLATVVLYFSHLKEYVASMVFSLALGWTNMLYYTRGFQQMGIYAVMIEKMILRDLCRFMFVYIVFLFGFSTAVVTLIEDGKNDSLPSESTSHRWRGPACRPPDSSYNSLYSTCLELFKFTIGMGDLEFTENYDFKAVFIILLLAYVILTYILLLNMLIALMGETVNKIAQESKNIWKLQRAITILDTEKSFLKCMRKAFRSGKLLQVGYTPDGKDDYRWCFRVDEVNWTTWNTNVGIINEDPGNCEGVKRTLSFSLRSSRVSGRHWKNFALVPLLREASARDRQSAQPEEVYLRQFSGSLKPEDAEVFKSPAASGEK
row,inhibition at 1 µM [%],Compound
1,23,"CC(C)(C)c1cc(CNC(=O)Nc2ccc(COCCO)c(F)c2)n(-c2ccc(F)cc2)n1 [A134, 1-[[5-tert-Butyl-2-(4-fluorophenyl)-2H-pyrazol-3-yl]-methyl]-3-[3-fluoro-4-(2-hydroxy-ethoxy-methyl)-phenyl]-urea]"
2,33,"CC(C(=O)NCc1cc(C(C)(C)C)nn1-c1ccc(F)cc1)c1ccc(COCCO)c(F)c1 (centres unmarked) [A124, N-[[5-tert-Butyl-2-(4-fluorophenyl)-2H-pyrazol-3-yl]-methyl]-2-[3-fluoro-4-(2-hydroxy-ethoxy-methyl)-phenyl]-propionamide]"

# Same assay, conditions: @ 5µM; human VR1 in CHO K1 cells; capsaicin; relative to maximum inhibition with 10 µM capsazepine; read-out: inhibition (as a percentage), printed in column (f) Ki (human being) [nM] Cap
row,inhibition at 5 µM [%],Compound
1,53,"N#Cc1cccc(-n2nc(C(F)(F)F)cc2CNC(=O)Nc2ccc(CO)c(F)c2)c1 [A85, 1-[[2-(3-Cyano-phenyl)-5-(trifluoromethyl)-2H-pyrazol-3-yl]-methyl]-3-[3-fluoro-4-(hydroxymethyl)-phenyl]-urea]"
2,13,"O=C(NCc1cc(C(F)(F)F)nn1-c1cccc(Cl)c1)Nc1ccc(C(O)(CO)CO)cc1 [A158, 1-[[2-(3-Chlorophenyl)-5-(trifluoromethyl)-2H-pyrazol-3-yl]-methyl]-3-[4-[1,2-dihydroxy-1-(hydroxymethyl)-ethyl]-phenyl]-urea]"

# Same assay, conditions: human VR1 in CHO K1 cells; AG printed instead of a Ki
row,(f) Ki (human being) [nM] Cap: agonist classification,Compound
1,AG,"CC(C(=O)NCc1cc(C(C)(C)C)nn1-c1ccc(F)c(Cl)c1)c1ccc(CO)c(F)c1 (centres unmarked) [A41, N-[[5-tert-Butyl-2-(3-chloro-4-fluoro-phenyl)-2H-pyrazol-3-yl]-methyl]-2-[3-fluoro-4-(hydroxymethyl)-phenyl]-propionamide]"
2,AG,"CC(C(=O)NCc1cc(C(C)(C)C)nn1-c1ccc(F)c(F)c1)c1ccc(CO)c(F)c1 (centres unmarked) [A39, N-[[5-tert-Butyl-2-(3,4-difluoro-phenyl)-2H-pyrazol-3-yl]-methyl]-2-[3-fluoro-4-(hydroxymethyl)-phenyl]-propionamide]"
3,AG,"CC(C(=O)NCc1cc(C(C)(C)C)nn1-c1cccc(Cl)c1)c1ccc(CCO)c(F)c1 (centres unmarked) [A139, N-[[5-tert-Butyl-2-(3-chlorophenyl)-2H-pyrazol-3-yl]-methyl]-2-[3-fluoro-4-(2-hydroxy-ethyl)-phenyl]-propionamide]"
4,AG,"CC(C(=O)NCc1cc(C(C)(C)C)nn1-c1cccc(Cl)c1)c1ccc(CO)c(F)c1 (centres unmarked) [A32, N-[[5-tert-Butyl-2-(3-chlorophenyl)-2H-pyrazol-3-yl]-methyl]-2-[3-fluoro-4-(hydroxymethyl)-phenyl]-propionamide]"

# Same assay, conditions: read-out: (f) Ki (human being) [nM] Cap
row,Compound,Ki [nM]
1,"O=C(Cc1ccc(COCCO)c(F)c1)NCc1cc(C(F)(F)F)nn1-c1cccc(Cl)c1 [A113, N-[[2-(3-Chlorophenyl)-5-(trifluoromethyl)-2H-pyrazol-3-yl]-methyl]-2-[3-fluoro-4-(2-hydroxy-ethoxy-methyl)-phenyl]-acetamide]",63
2,"CC(C)(C)c1cc(CNC(=O)Nc2ccc(OCCO)c(F)c2)n(-c2cccc(Cl)c2)n1 [A19, 1-[[5-tert-Butyl-2-(3-chlorophenyl)-2H-pyrazol-3-yl]-methyl]-3-[3-fluoro-4-(2-hydroxy-ethoxy)-phenyl]-urea]",13
3,"O=C(NCc1cc(C(F)(F)F)nn1-c1cccc(Cl)c1)Nc1ccc(CO)c(Cl)c1 [A97, 1-[3-Chloro-4-(hydroxymethyl)-phenyl]-3-[[2-(3-chlorophenyl)-5-(trifluoromethyl)-2H-pyrazol-3-yl]-methyl]-urea]",11
4,"COCCOc1ccc(NC(=O)NCc2cc(C(F)(F)F)nn2-c2cccc(Cl)c2)cc1F [A18, 1-[[2-(3-Chlorophenyl)-5-(trifluoromethyl)-2H-pyrazol-3-yl]-methyl]-3-[3-fluoro-4-(2-methoxy-ethoxy)-phenyl]-urea]",68
5,"O=C(NCc1cc(C(F)(F)F)nn1-c1ccc(F)c(Cl)c1)Nc1ccc(COCCO)c(F)c1 [A130, 1-[[2-(3-Chloro-4-fluoro-phenyl)-5-(trifluoromethyl)-2H-pyrazol-3-yl]-methyl]-3-[3-fluoro-4-(2-hydroxy-ethoxy-methyl)-phenyl]-urea]",47
6,"C[C@@H](C(=O)NCc1cc(C(F)(F)F)nn1-c1cccc(Cl)c1)c1ccc(CO)c(F)c1 [A35, (2R)-N-[[2-(3-Chlorophenyl)-5-(trifluoromethyl)-2H-pyrazol-3-yl]-methyl]-2-[3-fluoro-4-(hydroxymethyl)-phenyl]-propionamide]",1
7,"COc1ccc(-n2nc(C(F)(F)F)cc2CNC(=O)Nc2ccc(CO)c(F)c2)cc1 [A68, 1-[3-Fluoro-4-(hydroxymethyl)-phenyl]-3-[[2-(4-methoxyphenyl)-5-(trifluoromethyl)-2H-pyrazol-3-yl]-methyl]-urea]",13
8,"O=C(NCc1cc(C(F)(F)F)nn1-c1cccc(Cl)c1)Nc1ccc(C(O)CO)c(F)c1 (centres unmarked) [A151, 1-[[2-(3-Chlorophenyl)-5-(trifluoromethyl)-2H-pyrazol-3-yl]-methyl]-3-[4-(1,2-dihydroxy-ethyl)-3-fluoro-phenyl]-urea]",62
9,"CC(C)(C)c1cc(CNC(=O)Nc2ccc(CO)c(F)c2)n(-c2ccc(F)c(F)c2)n1 [A57, 1-[[5-tert-Butyl-2-(3,4-difluoro-phenyl)-2H-pyrazol-3-yl]-methyl]-3-[3-fluoro-4-(hydroxymethyl)-phenyl]-urea]",2
10,"COc1c(F)cc(CC(=O)NCc2cc(C(C)(C)C)nn2-c2cccc(Cl)c2)cc1F [A1, N-[[5-tert-Butyl-2-(3-chlorophenyl)-2H-pyrazol-3-yl]-methyl]-2-(3,5-difluoro-4-methoxy-phenyl)-acetamide]",12
11,"O=C(NCc1cc(C(F)(F)F)nn1-c1cccc(F)c1)Nc1ccc(OCCO)c(F)c1 [A21, 1-[3-Fluoro-4-(2-hydroxy-ethoxy)-phenyl]-3-[[2-(3-fluorophenyl)-5-(trifluoromethyl)-2H-pyrazol-3-yl]-methyl]-urea]",7
12,"CC(C(=O)NCc1cc(C(F)(F)F)nn1-c1ccc(F)c(F)c1)c1ccc(C2(O)CC2)c(F)c1 (centres unmarked) [A104, N-[[2-(3,4-Difluoro-phenyl)-5-(trifluoromethyl)-2H-pyrazol-3-yl]-methyl]-2-[3-fluoro-4-(1-hydroxy-cyclopropyl)-phenyl]-propionamide]",12

# Now from value to molecule:
row,Ki [nM],Compound
1,19,"CC(C)(C)c1cc(CNC(=O)Nc2ccc(C(O)CO)c(F)c2)n(-c2cccc(Cl)c2)n1 (centres unmarked) [A150, 1-[[5-tert-Butyl-2-(3-chlorophenyl)-2H-pyrazol-3-yl]-methyl]-3-[4-(1,2-dihydroxy-ethyl)-3-fluoro-phenyl]-urea]"
2,18,"CCOc1cc(C)cc(-n2nc(C(F)(F)F)cc2CNC(=O)Nc2ccc(CO)c(F)c2)c1 [A93, 1-[[2-(3-Ethoxy-5-methyl-phenyl)-5-(trifluoromethyl)-2H-pyrazol-3-yl]-methyl]-3-[3-fluoro-4-(hydroxymethyl)-phenyl]-urea]"
3,5,"C[C@@H](C(=O)NCc1cc(C(F)(F)F)nn1-c1cccc(Cl)c1)c1ccc(COCCO)c(F)c1 [A120, (2R)-N-[[2-(3-Chlorophenyl)-5-(trifluoromethyl)-2H-pyrazol-3-yl]-methyl]-2-[3-fluoro-4-(2-hydroxy-ethoxy-methyl)-phenyl]-propionamide]"
4,15,"CC(C(=O)NCc1cc(C(C)(C)C)nn1-c1cccc(OC(F)(F)F)c1)c1ccc(COCCO)c(F)c1 (centres unmarked) [A125, N-[[5-tert-Butyl-2-[3-(trifluoromethyloxy)-phenyl]-2H-pyrazol-3-yl]-methyl]-2-[3-fluoro-4-(2-hydroxy-ethoxy-methyl)-phenyl]-propionamide]"
5,45,"O=C(NCc1cc(C(F)(F)F)nn1-c1cccc(Cl)c1Cl)Nc1ccc(CO)c(F)c1 [A89, 1-[[2-(2,3-Dichloro-phenyl)-5-(trifluoromethyl)-2H-pyrazol-3-yl]-methyl]-3-[3-fluoro-4-(hydroxymethyl)-phenyl]-urea]"
6,7,"Cc1cc(-n2nc(C(F)(F)F)cc2CNC(=O)Nc2ccc(CO)c(F)c2)ccc1F [A80, 1-[3-Fluoro-4-(hydroxymethyl)-phenyl]-3-[[2-(4-fluoro-3-methyl-phenyl)-5-(trifluoromethyl)-2H-pyrazol-3-yl]-methyl]-urea]"
7,6,"O=C(NCc1cc(C(F)(F)F)nn1-c1ccccc1)Nc1ccc(CO)c(F)c1 [A58, 1-[3-Fluoro-4-(hydroxymethyl)-phenyl]-3-[[2-phenyl-5-(trifluoromethyl)-2H-pyrazol-3-yl]-methyl]-urea]"
8,43,"COc1cccc(-n2nc(C(F)(F)F)cc2CNC(=O)Nc2ccc(CO)c(F)c2)c1 [A67, 1-[3-Fluoro-4-(hydroxymethyl)-phenyl]-3-[[2-(3-methoxyphenyl)-5-(trifluoromethyl)-2H-pyrazol-3-yl]-methyl]-urea]"
9,22,"COc1cccc(-n2nc(C(F)(F)F)cc2CNC(=O)C(C)c2ccc(C3(O)CC3)c(F)c2)c1 (centres unmarked) [A103, 2-[3-Fluoro-4-(1-hydroxy-cyclopropyl)-phenyl]-N-[[2-(3-methoxyphenyl)-5-(trifluoromethyl)-2H-pyrazol-3-yl]-methyl]-propionamide]"
10,31,"O=C(NCc1cc(C(F)(F)F)nn1-c1cccc(Cl)c1)Nc1ccc(C2(O)CC2)c(F)c1 [A106, 1-[[2-(3-Chlorophenyl)-5-(trifluoromethyl)-2H-pyrazol-3-yl]-methyl]-3-[3-fluoro-4-(1-hydroxy-cyclopropyl)-phenyl]-urea]"
11,9,"CC(C(=O)NCc1cc(C(C)(C)C)nn1-c1cccc(Cl)c1)c1ccc(COCCO)c(F)c1 (centres unmarked) [A117, N-[[5-tert-Butyl-2-(3-chlorophenyl)-2H-pyrazol-3-yl]-methyl]-2-[3-fluoro-4-(2-hydroxy-ethoxy-methyl)-phenyl]-propionamide]"
12,37,"O=C(NCc1cc(C(F)(F)F)nn1-c1cccc(Cl)c1)Nc1ccc(OCCO)c(F)c1 [A20, 1-[[2-(3-Chlorophenyl)-5-(trifluoromethyl)-2H-pyrazol-3-yl]-methyl]-3-[3-fluoro-4-(2-hydroxy-ethoxy)-phenyl]-urea]"
